The text below walks through data of patent US20230303540A1 (Merck Sharp & Dohme LLC, priority 2020, published 2023).

In this assay the target is GST-tagged truncated human mutant G2019S LRRK2 (Homo sapiens, UniProt Q5S007, G2019S). Briefly: LRRK2 G2019S Km ATP LanthaScreen assay. It is filed as biochemical. Conditions: 134 μM ATP (Km ATP), LRRKtide substrate, mean IC50 values; read-out: LRRK2 pIC50 (converted). The method, boiled down: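 LanthaScreen TR-FRET read with fluorescein-LRRKtide and 134 μM ATP (Km) in Tris pH 8.5/10 mM MgCl2 buffer. The enzyme was preincubated 15 min with compound at room temperature, and the reaction ran 90 min at ambient temperature. Stopped with EDTA plus Tb anti-phospho-LRRKtide antibody; the 520/495 nm ratio gave a 4-parameter logistic IC50, mean of several runs.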
As to `CC1(n2ncc(Nc3ncc4cc(Cl)c(N5CCC(N6CC(F)(F)C6)CC5)cc4n3)c2Cl)CC1` [Ex-4.32, 6-chloro-N-[5-chloro-1-(1-methylcyclopropyl)-1H-pyrazol-4-yl]-7-[4-(3,3-difluoroazetidin-1-yl)piperidin-1-yl]quinazolin-2-amine], the IC50 is 2.02 nM.

As to `CC(C)(C)n1ncc(Nc2ncc3cc(Cl)c(N4CCC(N5CC(F)(F)C5)CC4)cc3n2)c1Cl` [Ex-4.33, N-(1-tert-butyl-5-chloro-1H-pyrazol-4-yl)-6-chloro-7-[4-(3,3-difluoroazetidin-1-yl)piperidin-1-yl]quinazolin-2-amine], the IC50 is 4.75 nM.

As to `CC1(O)CCN(c2cc3nc(Nc4cnn(C5(C)CC5)c4Cl)ncc3cc2Cl)CC1` [Ex-4.34, 1-(6-chloro-2-{[5-chloro-1-(1-methylcyclopropyl)-1H-pyrazol-4-yl]amino}quinazolin-7-yl)-4-methylpiperidin-4-ol], the IC50 is 0.625 nM.

As for `CN1CC2CC1CN2c1cc2nc(Nc3cnn(C4(C)CC4)c3Cl)ncc2cc1Cl` (stereo not drawn) [Ex-4.35, 6-chloro-N-[5-chloro-1-(1-methylcyclopropyl)-1H-pyrazol-4-yl]-7-(5-methyl-2,5-diazabicyclo[2.2.1]heptan-2-yl)quinazolin-2-amine], the IC50 was 4.91 nM.

`C[C@H]1CN(C)CCN1c1cc2nc(Nc3cnn(C4(C)CC4)c3Cl)ncc2cc1Cl` [Ex-4.36, 6-chloro-N-[5-chloro-1-(1-methylcyclopropyl)-1H-pyrazol-4-yl]-7-[(2S)-2,4-dimethylpiperazin-1-yl]quinazolin-2-amine]: the IC50 was 6.06 nM.

On to `CN1CC2(C1)CN(c1cc3nc(Nc4cnn(C5(C)CC5)c4Cl)ncc3cc1Cl)C2` [Ex-4.37, 6-chloro-N-[5-chloro-1-(1-methylcyclopropyl)-1H-pyrazol-4-yl]-7-(6-methyl-2,6-diazaspiro[3.3.]heptan-2-yl)quinazolin-2-amine], for which the IC50 is 1.24 nM.

Consider `CC1(n2ncc(Nc3ncc4cc(Cl)c(N5CC6(CN(CC(F)(F)F)C6)C5)cc4n3)c2Cl)CC1` [Ex-4.38, 6-chloro-N-[5-chloro-1-(1-methylcyclopropyl)-1H-pyrazol-4-yl]-7-[6-(2,2,2-trifluoroethyl)-2,6-diazaspiro[3.3]heptan-2-yl]quinazolin-2-amine], for which the IC50 was 29.4 nM.

For `CC1(n2ncc(Nc3ncc4cc(Cl)c(N5CCC(N6CC(F)C6)CC5)cc4n3)c2Cl)CC1` [Ex-4.39, 6-chloro-N-[5-chloro-1-(1-methylcyclopropyl)-1H-pyrazol-4-yl]-7-[4-(3-fluoroazetidin-1-yl)piperidin-1-yl]quinazolin-2-amine], the IC50 is 0.625 nM.

`CO[C@H]1CCN(c2cc3nc(Nc4cnn(C5(C)CC5)c4Cl)ncc3cc2Cl)C1` [Ex-4.40, 6-chloro-N-[5-chloro-1-(1-methylcyclopropyl)-1H-pyrazol-4-yl]-7-[(3S)-3-methoxypyrrolidin-1-yl]quinazolin-2-amine]: the IC50 is 15.2 nM.

`C[C@H]1CN(c2cc3nc(Nc4cnn(C5(C)CC5)c4Cl)ncc3cc2Cl)CCN1C1COC1` [Ex-4.41, 6-chloro-N-[5-chloro-1-(1-methylcyclopropyl)-1H-pyrazol-4-yl]-7-[(3S)-3-methyl-4-(oxetan-3-yl)piperazin-1-yl]quinazolin-2-amine]: the IC50 is 1.91 nM.

For `CN1CCC2(CCN(c3cc4nc(Nc5cnn(C6(C)CC6)c5Cl)ncc4cc3Cl)C2)C1` (stereo not drawn) [Ex-4.42, 6-chloro-N-[5-chloro-1-(1-methylcyclopropyl)-1H-pyrazol-4-yl]-7-(7-methyl-2,7-diazaspiro[4.4]nonan-2-yl)quinazolin-2-amine], the IC50 is 6.55 nM.

Regarding `CC1CN(C2CCN(c3cc4nc(Nc5cnn(C6(C)CC6)c5Cl)ncc4cc3Cl)CC2)C1` [Ex-4.43, 6-chloro-N-[5-chloro-1-(1-methylcyclopropyl)-1H-pyrazol-4-yl]-7-[4-(3-methylazetidin-1-yl)piperidin-1-yl]quinazolin-2-amine], the IC50 was 3.52 nM.
